Reference: patent US20260055126A1, “SMALL MOLECULE COMPOUNDS WITH PHOSPHORYLATED ARYL STRUCTURES AND USE THEREOF” (HANGZHOU PHECDAMED CO., LTD., priority 2022, published 2026)

What was measured:
Assay type in all cases: binding
Settings in all cases: 10 μM TEAD protein, 50 μM test compound
[1] = test system: recombinant TEAD1 protein (194-411, Uniprot ID: P28347); assay: Thermal shift assay (protein melting point curve), TEAD1; set-up: key to the marks not given beside the values
Experimental: (§1) The ability of the compounds to increase the melting point of purified recombinant TEAD1/2/3/4 proteins is tested using a thermal shift assay. The strength of the compound's binding to the protein and the selectivity of the compound's binding to the four TEAD subtypes are evaluated by calculating the melting point shift ΔTm−° C. […] Based on the Δ Tm value, the ability of the compound to bind to the TEAD protein is divided into four levels: ++++, +++, ++, +.
(§2) Test method of protein melting point curve: 10 μL of the protein melting point curve experimental system (10 μM TEAD protein, 50 μM test compound, SYPRO® orange (55692, sigma)) is prepared in a 384-well fluorescence quantitative PCR plate according to the following system, and reacted at 4° C. in the dark for 20 minutes. On-machine reaction: ABI QuantStudio Dx fluorescence quantitative PCR instrument; program: from 25° C. to 80° C., increasing the temperature at a rate of 0.05° C./s, and reading the fluorescence channel signal of the corresponding wavelength of SYPRO® orange every second.

[2] = target: recombinant TEAD4 protein (217-434, Uniprot ID: Q15561) (Homo sapiens (Human), UniProt Q15561); assay: Thermal shift assay (protein melting point curve), TEAD4
Chain of recombinant TEAD4 protein (217-434, Uniprot ID: Q15561) (Q15561 217-434): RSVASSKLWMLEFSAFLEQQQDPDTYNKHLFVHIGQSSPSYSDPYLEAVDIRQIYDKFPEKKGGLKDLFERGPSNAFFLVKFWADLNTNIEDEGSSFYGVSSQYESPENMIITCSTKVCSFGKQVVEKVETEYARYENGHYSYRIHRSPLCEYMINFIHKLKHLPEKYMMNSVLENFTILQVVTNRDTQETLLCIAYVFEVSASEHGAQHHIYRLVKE
Experimental: as §1, §2

[3] = target: recombinant TEAD3 protein (218-435, Uniprot ID: Q99594) (Homo sapiens (Human), UniProt Q99594); assay: Thermal shift assay (protein melting point curve), TEAD3
Chain of recombinant TEAD3 protein (218-435, Uniprot ID: Q99594) (Q99594 218-435): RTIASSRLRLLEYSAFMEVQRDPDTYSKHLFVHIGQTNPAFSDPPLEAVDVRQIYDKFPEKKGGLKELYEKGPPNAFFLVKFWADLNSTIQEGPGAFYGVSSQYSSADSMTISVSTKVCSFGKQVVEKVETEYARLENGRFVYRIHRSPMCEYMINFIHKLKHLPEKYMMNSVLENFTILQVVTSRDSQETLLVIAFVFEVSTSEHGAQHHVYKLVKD
Experimental: as §1, §2

[4] = target: recombinant TEAD2 protein (218-447, Uniprot ID: Q15562) (Homo sapiens (Human), UniProt Q15562); assay: Thermal shift assay (protein melting point curve), TEAD2
Chain of recombinant TEAD2 protein (218-447, Uniprot ID: Q15562) (Q15562 218-447): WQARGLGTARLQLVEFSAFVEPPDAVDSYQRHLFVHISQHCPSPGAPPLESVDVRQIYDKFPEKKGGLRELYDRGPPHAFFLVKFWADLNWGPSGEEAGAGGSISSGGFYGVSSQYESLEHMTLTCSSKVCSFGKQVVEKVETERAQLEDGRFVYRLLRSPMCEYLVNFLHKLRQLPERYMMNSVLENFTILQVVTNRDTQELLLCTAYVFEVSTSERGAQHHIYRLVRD
Experimental: as §1, §2

Δ T m (TEAD4) [2] | Δ T m (TEAD3) [3] | Δ T m (TEAD2) [4] | Compound | Δ T m (TEAD1) [1]
++ | ++ | ++ | CP(C)(=O)c1ccc(NC23CC(C(F)(F)F)(C2)C3)c(-c2nccc(OC3COC3)n2)c1 [Compound 37] | ++
++ | + | ++ | CP(C)(=O)c1ccc(Nc2ccc(C(F)(F)F)cc2)c(-c2nccc(OC(F)F)n2)c1 [Compound 65] | +++
+ | + | + | CP(C)(=O)c1ccc(Nc2cccc(C(F)(F)F)c2)c(-c2nccc(OC3COC3)n2)c1 [Compound 13] | +++
++ | + | + | CP(C)(=O)c1cnc(Nc2ccc(C(F)(F)F)cc2)c(-c2nccc(OC3COC3)n2)c1 [Compound 39] | ++++
+++ | ++ | +++ | CP(C)(=O)c1ccc(Nc2ccc(C(F)(F)F)cc2)c(-c2cn(C3COC3)nn2)c1 [Compound 41] | +++
+ | ++ | ++ | CP(C)(=O)c1ccc(Nc2ccc(C(F)(F)F)cc2)c(-c2nccc(OCCO)n2)c1 [Compound 19] | ++
++++ | + | ++ | CP(C)(=O)c1ccc(Nc2ccc(Br)cc2)c(-c2nccc(OC3COC3)n2)c1 [Compound 26] | ++++

Further lines, the molecule ahead of its results:

Compound | Δ T m (TEAD4) [2] | Δ T m (TEAD3) [3] | Δ T m (TEAD2) [4] | Δ T m (TEAD1) [1]
COCc1cccn(-c2cc(P(C)(C)=O)ccc2NCc2ccc(C(F)(F)F)cc2)c1=O [Compound 59] | + | + | + | ++
CP(C)(=O)c1ccc(Nc2ccc(C(F)(F)F)cc2)c(-n2cc(C3CCOCC3)cn2)c1 [Compound 33] | ++ | + | + | ++
CP(C)(=O)c1ccc(Nc2ccc(C(F)(F)F)cc2)c(-c2cnn(CC3COC3)c2)c1 [Compound 16] | +++ | ++ | ++ | +++
Cc1nnc(-c2cc(P(C)(C)=O)ccc2NCc2ccc(C(F)(F)F)cc2)o1 [Compound 4] | + | ++ | ++ | +++
CP(C)(=O)c1ccc(Nc2ccc(C(F)(F)F)cc2)c(-c2ncn3ccccc23)c1 [Compound 40] | ++ | ++ | ++ | ++
CC1OCCC1S(=O)(=O)c1csc(-c2cc(P(C)(C)=O)ccc2Nc2ccc(C(F)(F)F)cc2)n1 (stereo not drawn) [Compound 23] | + | + | + | ++
CP(C)(=O)c1ccc(Nc2ccc(C(F)(F)F)cc2)c(-c2nnc(CO)o2)c1 [Compound 11] | ++ | + | ++ | +++
CP(C)(=O)c1ccc(NCC2CCC(C(F)(F)F)CC2)c(-c2ncccn2)c1 (stereo not drawn) [Compound 46] | ++ | ++ | ++ | +++
CP(C)(=O)c1ccc(NCc2ccc(C(F)(F)F)cc2)c(-c2cnn(C3COC3)c2)c1 [Compound 50] | ++ | ++ | ++ | ++
CP(C)(=O)c1ccc(Nc2ccc(C(F)(F)F)cc2)c(-c2nnn(Cc3ccccn3)n2)c1 [Compound 3] | ++ | + | + | +++
CP(C)(=O)c1ccc(NCc2ccc(C(F)(F)F)cc2)c(-n2cc(C3CCOCC3)cn2)c1 [Compound 58] | + | + | + | ++
